Laboratory results reported in paper PMC10993450, “New benzimidazole derivative compounds with in vitro fasciolicidal properties” (Parasites & Vectors, 2024).
pIC50: −log10 of the molar value. Several values for one entry are separate records, joined by “and”; a condition that tells them apart may be missing. Equal values may be shown once. Read-outs that look alike come from different tables or passages of the source.

Key:
[1] = tested on: Fasciola hepatica eggs (ABZ-susceptible isolate); assay: Egg hatch test (EHT), ABZ-susceptible isolates; assay type: cell-based; conditions: for % Ovicidal activity: ABZ-susceptible isolate
Experimental: Eggs were recovered from gallbladders of cattle naturally infected with F. hepatica at the municipal slaughterhouse of León (Spain). For this, the bile of the gallbladders was filtered through sieves of different diameter size pores (500, 150, and 20 µm) using pressurized tap water. Eggs retained on the 20 µm pore size sieve were collected and stored at 4 °C in darkness until required within a maximum period of 2 months.
The susceptibility of the isolates to ABZ was confirmed by the egg hatch test (EHT) using an ABZ discriminant dose (DD) of 0.5 µM [23]. The technique is described in more detail below.
The in vitro anthelmintic activity of a total of 70 BZDs was initially tested on F. hepatica eggs recovered from gallbladders of cattle naturally infected with ABZ-susceptible isolates. The first screening was performed using a fixed concentration of 50 µM. […] Therefore, only BZDs with ovicidal activities over 80% progressed to the next assays at 10 µM. […] At this last concentration, the ovicidal effect of ABZ, ABZSO, and OXF was also evaluated.
(§1) The in vitro EHT described in the current study was based on previous studies. Briefly, 100–120 eggs were incubated in 990 µL of water and 10 μL of each working solution at 25 °C in the dark for a period of 12 h. After incubation, eggs were gently washed with tap water three times to facilitate compound removal and kept in darkness at 25 °C for 14 days. After this period, eggs were exposed to light for 2 h to stimulate the hatching of eggs. Then, hatched and unhatched eggs were evaluated and counted using an optical microscope. The term “hatched eggs” includes both hatched and embryonated eggs. Negative control eggs were incubated with 10 μL of DMSO in 990 μL of water, reaching a maximum DMSO concentration of 1% (v/v), while ABZ at 0.5 µM was used as positive control. Each compound at a specific concentration was tested in triplicate in the same EHT and repeated at least two different days.
With the aim to characterize the susceptibility of isolates from naturally infected cattle, the drug used in the EHT was ABZ, tested at a discriminant dose of 0.5 μM. Drug susceptibility is assumed when the ovicidal activity is over 70%, resistance when is lower than 40%, and a suspicion of resistance when activity is between these values at 0.5 μM.
(§2) The efficacy of each compound and drug was calculated as its ovicidal activity following the formula below: Ovicidal activity%=100×%eggs hatched in negative control-%egg hatched after drug incubation/%egg hatched in control.

Fasciola hepatica eggs = tested on: Fasciola hepatica eggs; parameters: method as in PMID 19560276; conditions: other studies, cited from earlier work
[2] = tested on: Fasciola hepatica eggs (ABZ-resistant isolate); assay: Egg hatch test (EHT), ABZ-resistant isolate; assay type: cell-based; conditions: ABZ at discriminant dose (DD) 0.5 µM
Source text: (§3) F. hepatica eggs were recovered after washing the gallbladder of three naturally infected sheep belonging to a flock suspected to be resistant to ABZ. From these eggs, metacercariae were produced at the Centro de Investigaciones de Mabegondo (AGACAL, Xunta de Galicia, Spain) following a previous protocol. These metacercariae were used to infect eight sheep with a dose of 200 metacercariae. The infection was confirmed individually 3 months after the infection by coprological analysis using a sedimentation technique. At that point, sheep were randomly located in two groups of four animals: one treated with a therapeutic dose of ABZ (7.5 mg/kg) and the other one only with water, as control group. To assess the efficacy of ABZ in this isolate, all sheep were humanely euthanized by an intravenous administration of a lethal dose of sodium pentobarbital (Dolethal®, Vetoquinol, Spain) 2 weeks later for fluke recovery and counting. Afterwards, the in vivo efficacy of ABZ was calculated as the percentage of adult worm reduction compared with the untreated control. Additionally, the number of eggs per gram of feces (EPG) was estimated on the treatment day (mentioned as day 0) and 14 days later to determine drug efficacy by means of the fecal egg count reduction test (FECRT).
During the necropsy, gallbladders from sheep belonging to the untreated group were taken to collect the eggs and carry out the in vitro EHT, while flukes collected from livers were used to conduct the adult viability test (AVT).
Those BZDs with an activity higher than 80% at a concentration of 10 µM were also screened on eggs and adults from the ABZ resistant isolate.
as §1, §2

[3] = tested on: Fasciola hepatica (resistant isolate); assay: In vivo efficacy of ABZ in sheep infected with the resistant isolate (worm count, FECRT); conditions: ABZ 7.5 mg/kg
Source text: as §3, with “To assess the efficacy of ABZ in this isolate, all sheep were humanely euthanized by an intravenous administration of a lethal dose of sodium pentobarbital (Dolethal®, Vetoquinol, Spain) 2 weeks later for fluke recovery and counting.” left out, “Additionally, the number of eggs per gram of feces (EPG) was estimated on the treatment day (mentioned as day 0) and 14 days later to determine drug efficacy by means of the fecal egg count reduction test (FECRT).” left out
The percentage of in vivo efficacy of ABZ and the FECRT were calculated using the following formulas, respectively: %of Worm Reduction=100×Mean of adult worms in control group-Mean of adult worms in treated group/Mean of adult worms in control group. %FECRT=100×Arithmetic mean EPG day0-Arithmetic mean EPG day 14/Arithmetic mean EPG day0.

[4] = tested on: Heligmosomoides polygyrus adults; parameters: method as in PMID 35804427; conditions: 10 µM; cited from earlier work
[5] = tested on: Teladorsagia circumcincta eggs; conditions: cited from earlier work
Trichuris muris adults = tested on: Trichuris muris adults; parameters: method as in PMID 35804427; conditions: 10 µM; cited from earlier work
HepG2 cells = assay: Cytotoxicity assay, alamarBlue; assay type: cell-based, human
Experimental: (§4) The effect of the BZDs on cell viability was assessed on a human hepatocarcinoma HepG2 (ATCC® HB-8065™, USA) cell line. Only compounds screened at a concentration of 10 µM were evaluated. The detailed protocol is described in a previous study carried out by our research group. Briefly, 10,000 cells were seeded on 96-well plates and incubated with different concentrations of the compounds ranging from 1 to 100 µM at 37 °C and 5% CO2. After 72 h of exposure, viability of the cells was assessed using the alamarBlue (Fisher Scientific®, Spain) staining method according to the manufacturer’s recommendations.
(§5) The data are represented as mean ± standard error of media (SEM).

[6] = tested on: murine intestinal organoids; assay: Intestinal tolerability assay on murine intestinal organoids; assay type: cell-based, mouse; conditions: 25 µM
Experimental: (§6) The murine intestinal organoid cultures were prepared following Stemcell Technologies™ protocols (https://www.stemcell.com/intestinal-epithelial-organoid-culture-with-intesticult-organoid-growth-medium-mouse-lp.html#protocols). Small intestine sections from C57BL/6 mice were excised, washed with ice-cold PBS, minced, and 2 mm segments were washed extensively. The segments were treated with Gentle Cell Dissociation Reagent (Stemcell Technologies™, Canada), resuspended in ice-cold PBS with 0.1% BSA and filtered. This process was repeated four times, resulting in four fractions. Cells from each fraction were centrifuged, washed, and resuspended in ice-cold DMEM/F12 supplemented with glutamine and HEPES 15 mM. Each fraction was mixed with Geltrex GFR LDEV-free (Gibco, Thermo Fisher Scientific, USA) and IntestiCult™ Organoid Grow Medium Mouse (Stemcell Technologies™, Canada), added to a 24-well plate and incubated at 37 °C for 10 min for matrix polymerization. The organoids were cultured in IntestiCult™ Organoid Grow Medium Mouse, with medium changes every 2 days and splitting after 7 days.
(§7) For intestinal tolerability assays, selected hit compounds were tested in mouse intestinal organoids at 25 and 50 µM final concentrations. The protocol, based on a previous work, involved the addition of Gentle Cell Dissociation Reagent (Stemcell Technologies™, Canada) on matrix domes, the disruption of the matrix, and the incubation the suspension. After centrifugation, cells were resuspended in DMEM/F12 supplemented with glutamine and HEPES 15 mM and centrifugated again. The pellet was resuspended in a mix of Geltrex GFR LDEV-free and IntestiCult™ Organoid Grow Medium Mouse. The mix was plated in 384-well plates, and after 4 days, mature organoids were exposed to the compounds. The positive control was hydrogen peroxide (0.15% v/v), and the negative control was DMSO (0.2%). Viability after 72 h was assessed using the alamarBlue assay.

Haemonchus contortus = conditions: sheep infected with Haemonchus contortus, 120 mg/kg; cited from earlier work
[7] = Cytotoxicity assay, alamarBlue; assay type: cell-based, human; conditions: human, HepG2 cells; 72 h exposure, alamarBlue; read-out: CC50 Hep-G2
Experimental: as §4, §5

[8] = Intestinal tolerability assay on murine intestinal organoids; assay type: cell-based, mouse; conditions: C57BL/6, mouse, murine small-intestinal organoids, 72 h
Experimental: as §6, §7

For `CCCSc1ccc2nc(NC(=O)OC)[nH]c2c1` [ABZ, albendazole, reference compound], the “% Ovicidal activity” value ([1]; ABZ at discriminant dose (DD) 0.5 µM) is given as 99.1% and 98%, the “% Ovicidal activity” value ([1]; ABZ at discriminant dose (DD) 0.5 µM, listed as ABZ (DD)) is given as 99.01 ± 00.37% and 98.55 ± 00.41% and the “Lowest concentration able to reduce egg hatching” value (Fasciola hepatica eggs; in vitro) is given as 0.05 µM. The “% Ovicidal activity resistant isolate” value [2] was 36.5%, the “% Ovicidal activity resistant isolate” value ([2]; listed as ABZ (DD)) was 36.46 ± 02.36% and the “reduction in the number of eggs in feces (FECRT)” value ([3]; day 0 vs day 14) was 0%. For the same compound, the “survival rate of the adult flukes” value ([3]; necropsy 2 weeks after treatment) was 96.7%.

In the case of `Clc1ccc(-c2nc3cc(Cl)ccc3[nH]2)cc1` [BZD09], the “% Ovicidal activity” value ([1]; 50 µM, mean ± SEM) is given as 04.96 ± 1.22%, the “Inhibition of motility of Heligmosomoides polygyrus adults” value [4] is given as “effectively inhibited the motility” and the pIC50 ([5]; read-out: 50% inhibitory concentration (IC50) in eggs by the EHT, T. circumcincta eggs, type I BZDs) is given as 5.22.

In the case of `O=[N+]([O-])c1ccc2[nH]c(-c3ccc(Cl)cc3)nc2c1` [BZD15], the “% Ovicidal activity” value ([1]; 50 µM, mean ± SEM) is given as 24.32 ± 10.58% and the “Inhibition of Trichuris muris adult motility” value (Trichuris muris adults) is given as “inhibited Trichuris muris adult motility”.

With `Cc1ccc2[nH]c(NC(=O)c3ccccn3)nc2c1` [BZD55] the CC50 (HepG2 cells) was > 100 µM, the “% Ovicidal activity” value ([1]; 10 µM, mean ± SEM) was 07.11 ± 03.01% and the “% Ovicidal activity” value ([1]; 50 µM, mean ± SEM) was 89.71 ± 3.87%. The “% Ovicidal activity” value ([1]; 50 µM, mean ± SEM, listed as BZD-55) was “higher than 80%”, the “% Viability in organoids” value [6] was 98.60% and the pIC50 ([5]; type II BZDs, read-out: IC50 against T. circumcincta eggs) was ~6.00.

In the case of `O=C(Nc1nc2cc(Cl)ccc2[nH]1)c1ccccn1` [BZD58], the CC50 (HepG2 cells) was > 5 µM, the “% Ovicidal activity” value ([1]; 10 µM, mean ± SEM) was “around 50%” and the “% Ovicidal activity” value ([1]; 50 µM, mean ± SEM) was “higher than 80%”. For the same compound, the “% Viability in organoids” value [6] was 100% and the in vivo efficacy (Haemonchus contortus) was 95%.

In the case of `Nc1cc(C(Cl)=C(Cl)Cl)c(S(N)(=O)=O)cc1S(N)(=O)=O` [CLR, clorsulon], the “Effect on in vitro egg hatching” value (Fasciola hepatica eggs) is listed as “did not affect in vitro egg hatching”.

In the case of `CSc1nc2cc(Cl)c(Oc3cccc(Cl)c3Cl)cc2[nH]1` [TCBZ, triclabendazole, reference compound], the CC50 at 72 h [7] was > 50 µM, the killing at 5 µM ([1]; Fasciola hepatica, 5 µM, mean ± SEM, read-out: % Ovicidal activity susceptible isolate) was ≤ 2% and the viability at 72 h, 25 µM ([8]; 25 µM) was ~82%. For the same compound, the viability at 72 h, 50 µM ([8]; 50 µM) was ~1.5% and the “Effect on in vitro egg hatching” value (Fasciola hepatica eggs) was “did not affect in vitro egg hatching”.
